{
  "source": "patent US20140007865A1",
  "about": "“OLOPATADINE NASAL SPRAY REGIMEN FOR CHILDREN” (Alcon Research, Ltd., priority 2009, published 2014)",
  "assay": "Acid-base equilibrium (pKa) of olopatadine",
  "type": "physicochemical",
  "text": "Olopatadine has both a carboxylic functional group (pKa1=4.18) and a tertiary amino group (pKa2=9.79). It exists in different ionic forms depending upon the pH of the solution. Olopatadine exists predominantly as a zwitterion in the pH range between the two pKa values with a negatively-charged carboxylic group and a positively-charged tertiary amino group. The iso-electric point of the olopatadine zwitterion is at pH 6.99. At a pH lower than pKa1, cationic olopatadine (with ionized tertiary amino group) is dominant. At a pH higher than pKa2, anionic olopatadine (with ionized carboxylic group) is dominant.",
  "data": [
    {"smiles": "CN(C)CC/C=C1/c2ccccc2COc2ccc(CC(=O)O)cc21", "note": "[Olopatadine, Z-11-(3-dimethylaminopropylidene)-6,1′-dihydrodibenz[b,e]oxepine-2-acetic acid]", "values": [
      {"measurement": "iso-electric point of the olopatadine zwitterion", "result": 6.99, "unit": "pH"},
      {"measurement": "pKa1 (carboxylic functional group)", "result": 4.18},
      {"measurement": "pKa2 (tertiary amino group)", "result": 9.79}
    ]}
  ]
}
